pIC50: −log10 of the molar value.
target: T1, 11-beta-hydroxysteroid dehydrogenase 1 (Homo sapiens, UniProt P28845); assay: Inhibition of recombinant 11betaHSD1 expressed in CHO cells assessed as [3H]-cortisone to [3H]-cortisol by microscintillation plate reader; assay type: cell-based; conditions: not given
T1 sequence (P28845 whole entry): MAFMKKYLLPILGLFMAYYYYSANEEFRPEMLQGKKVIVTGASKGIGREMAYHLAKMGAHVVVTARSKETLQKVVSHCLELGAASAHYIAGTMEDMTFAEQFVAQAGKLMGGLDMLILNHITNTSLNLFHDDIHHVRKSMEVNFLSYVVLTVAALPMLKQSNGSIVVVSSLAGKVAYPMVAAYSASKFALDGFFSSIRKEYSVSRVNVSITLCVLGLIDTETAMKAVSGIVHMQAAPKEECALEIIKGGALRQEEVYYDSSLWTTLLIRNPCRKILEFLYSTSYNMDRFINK

pIC50 | SMILES
9.06 | N#Cc1cccnc1N[C@@H]1CCN(C(=O)O[C@H]2C3CC4CC2C[C@](C(N)=O)(C4)C3)C1
8.82 | N#Cc1ccc(N[C@@H]2CCN(C(=O)O[C@H]3C4CC5CC3C[C@](C(N)=O)(C5)C4)C2)nc1
8.59 | N#Cc1cccnc1N[C@H]1CCN(C(=O)O[C@H]2C3CC4CC2C[C@](C(N)=O)(C4)C3)C1
8.77 | N#Cc1ccc(N[C@H]2CCN(C(=O)O[C@H]3C4CC5CC3C[C@](C(N)=O)(C5)C4)C2)nc1

target: T1, 11-beta-hydroxysteroid dehydrogenase 1; assay: Inhibition of 11betaHSD1 in human platelet assessed as [3H]-cortisone to [3H]-cortisol by microscintillation plate reader; conditions: not given

pIC50 | SMILES
9.40 | N#Cc1cccnc1N[C@@H]1CCN(C(=O)O[C@H]2C3CC4CC2C[C@](C(N)=O)(C4)C3)C1
8.57 | N#Cc1ccc(N[C@@H]2CCN(C(=O)O[C@H]3C4CC5CC3C[C@](C(N)=O)(C5)C4)C2)nc1
8.12 | N#Cc1cccnc1N[C@H]1CCN(C(=O)O[C@H]2C3CC4CC2C[C@](C(N)=O)(C4)C3)C1
8.28 | N#Cc1ccc(N[C@H]2CCN(C(=O)O[C@H]3C4CC5CC3C[C@](C(N)=O)(C5)C4)C2)nc1

target: T2, 3 beta-hydroxysteroid dehydrogenase/Delta 5-->4-isomerase type 2 (Homo sapiens, UniProt P26439); assay: Inhibition of 3betaHSD2; conditions: not given
T2 sequence (P26439 whole entry): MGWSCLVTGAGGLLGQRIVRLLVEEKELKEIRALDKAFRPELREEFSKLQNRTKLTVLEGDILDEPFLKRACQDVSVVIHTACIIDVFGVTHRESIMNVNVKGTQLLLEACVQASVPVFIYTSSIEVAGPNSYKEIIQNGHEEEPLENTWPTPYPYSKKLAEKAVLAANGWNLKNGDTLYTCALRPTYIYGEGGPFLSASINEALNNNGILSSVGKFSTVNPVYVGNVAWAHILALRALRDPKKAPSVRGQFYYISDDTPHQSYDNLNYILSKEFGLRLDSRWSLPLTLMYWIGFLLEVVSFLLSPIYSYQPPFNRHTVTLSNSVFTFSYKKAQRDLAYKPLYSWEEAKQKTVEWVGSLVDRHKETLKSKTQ

pIC50 | SMILES
< 5.00 | N#Cc1cccnc1N[C@@H]1CCN(C(=O)O[C@H]2C3CC4CC2C[C@](C(N)=O)(C4)C3)C1
< 5.00 | N#Cc1ccc(N[C@@H]2CCN(C(=O)O[C@H]3C4CC5CC3C[C@](C(N)=O)(C5)C4)C2)nc1

target: T3, 11-beta-hydroxysteroid dehydrogenase type 2 (Homo sapiens, UniProt P80365); assay: Inhibition of 11betaHSD2; conditions: not given
T3 sequence (P80365 whole entry): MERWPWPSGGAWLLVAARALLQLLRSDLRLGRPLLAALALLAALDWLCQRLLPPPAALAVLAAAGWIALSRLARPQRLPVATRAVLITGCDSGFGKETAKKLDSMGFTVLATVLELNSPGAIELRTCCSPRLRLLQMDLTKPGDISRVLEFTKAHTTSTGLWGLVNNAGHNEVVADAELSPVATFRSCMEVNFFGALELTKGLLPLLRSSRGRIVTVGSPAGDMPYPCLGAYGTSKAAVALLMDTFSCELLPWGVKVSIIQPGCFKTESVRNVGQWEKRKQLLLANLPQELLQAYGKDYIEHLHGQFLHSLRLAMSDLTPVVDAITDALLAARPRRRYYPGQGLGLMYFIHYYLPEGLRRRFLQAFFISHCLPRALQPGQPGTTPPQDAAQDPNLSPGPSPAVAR

pIC50 | SMILES
5.13 | N#Cc1cccnc1N[C@@H]1CCN(C(=O)O[C@H]2C3CC4CC2C[C@](C(N)=O)(C4)C3)C1
5.06 | N#Cc1ccc(N[C@@H]2CCN(C(=O)O[C@H]3C4CC5CC3C[C@](C(N)=O)(C5)C4)C2)nc1

target: T1, 11-beta-hydroxysteroid dehydrogenase 1; assay: Inhibition of recombinant 11betaHSD1 expressed in CHO cells assessed as [3H]-cortisone to [3H]-cortisol by microscintillation plate reader in presence of plasma; assay type: cell-based; conditions: not given

pIC50 | SMILES
8.62 | N#Cc1cccnc1N[C@@H]1CCN(C(=O)O[C@H]2C3CC4CC2C[C@](C(N)=O)(C4)C3)C1
8.49 | N#Cc1ccc(N[C@@H]2CCN(C(=O)O[C@H]3C4CC5CC3C[C@](C(N)=O)(C5)C4)C2)nc1

target: Cytochrome P450 3A4 (Homo sapiens, UniProt P08684); assay: Inhibition of CYP3A4; assay type: ADME; conditions: not given
Sequence (P08684 whole entry): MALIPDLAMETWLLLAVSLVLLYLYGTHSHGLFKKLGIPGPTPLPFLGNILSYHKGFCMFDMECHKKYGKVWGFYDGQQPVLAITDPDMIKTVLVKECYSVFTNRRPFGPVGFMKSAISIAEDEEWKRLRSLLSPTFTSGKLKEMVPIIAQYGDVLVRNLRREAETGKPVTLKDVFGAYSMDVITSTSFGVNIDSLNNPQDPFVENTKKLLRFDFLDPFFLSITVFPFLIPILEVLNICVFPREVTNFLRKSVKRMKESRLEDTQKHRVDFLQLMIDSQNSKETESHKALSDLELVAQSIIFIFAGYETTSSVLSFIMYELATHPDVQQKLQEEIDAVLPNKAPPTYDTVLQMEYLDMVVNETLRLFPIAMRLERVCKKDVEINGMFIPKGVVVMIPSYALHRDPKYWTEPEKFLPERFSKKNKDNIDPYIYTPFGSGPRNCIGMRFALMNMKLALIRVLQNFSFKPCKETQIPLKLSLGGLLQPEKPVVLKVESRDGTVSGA

pIC50 | SMILES
4.77 | N#Cc1cccnc1N[C@@H]1CCN(C(=O)O[C@H]2C3CC4CC2C[C@](C(N)=O)(C4)C3)C1
4.85 | N#Cc1ccc(N[C@@H]2CCN(C(=O)O[C@H]3C4CC5CC3C[C@](C(N)=O)(C5)C4)C2)nc1
4.73 | N#Cc1cccnc1N[C@H]1CCN(C(=O)O[C@H]2C3CC4CC2C[C@](C(N)=O)(C4)C3)C1
4.58 | N#Cc1ccc(N[C@H]2CCN(C(=O)O[C@H]3C4CC5CC3C[C@](C(N)=O)(C5)C4)C2)nc1

target: Cytochrome P450 2C9 (Homo sapiens, UniProt P11712); assay: Inhibition of CYP2C9; assay type: ADME; conditions: not given
Sequence (P11712 whole entry): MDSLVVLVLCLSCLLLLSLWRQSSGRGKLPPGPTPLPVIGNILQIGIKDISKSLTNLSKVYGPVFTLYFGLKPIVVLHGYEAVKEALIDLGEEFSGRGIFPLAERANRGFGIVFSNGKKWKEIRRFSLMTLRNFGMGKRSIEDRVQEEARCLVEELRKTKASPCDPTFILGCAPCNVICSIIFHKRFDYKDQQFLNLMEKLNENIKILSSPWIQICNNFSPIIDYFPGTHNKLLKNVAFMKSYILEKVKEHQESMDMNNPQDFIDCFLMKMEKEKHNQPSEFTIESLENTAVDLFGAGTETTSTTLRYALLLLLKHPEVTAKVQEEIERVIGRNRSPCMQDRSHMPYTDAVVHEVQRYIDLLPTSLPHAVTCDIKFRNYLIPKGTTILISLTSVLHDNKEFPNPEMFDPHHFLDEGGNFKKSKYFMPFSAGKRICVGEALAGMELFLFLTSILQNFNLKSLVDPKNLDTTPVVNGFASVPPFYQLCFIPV

pIC50 | SMILES
< 4.52 | N#Cc1cccnc1N[C@@H]1CCN(C(=O)O[C@H]2C3CC4CC2C[C@](C(N)=O)(C4)C3)C1
4.64 | N#Cc1ccc(N[C@@H]2CCN(C(=O)O[C@H]3C4CC5CC3C[C@](C(N)=O)(C5)C4)C2)nc1
< 4.52 | N#Cc1cccnc1N[C@H]1CCN(C(=O)O[C@H]2C3CC4CC2C[C@](C(N)=O)(C4)C3)C1
4.70 | N#Cc1ccc(N[C@H]2CCN(C(=O)O[C@H]3C4CC5CC3C[C@](C(N)=O)(C5)C4)C2)nc1

target: Cytochrome P450 2D6 (Homo sapiens, UniProt P10635); assay: Inhibition of CYP2D6; assay type: ADME; conditions: not given
Sequence (P10635 whole entry): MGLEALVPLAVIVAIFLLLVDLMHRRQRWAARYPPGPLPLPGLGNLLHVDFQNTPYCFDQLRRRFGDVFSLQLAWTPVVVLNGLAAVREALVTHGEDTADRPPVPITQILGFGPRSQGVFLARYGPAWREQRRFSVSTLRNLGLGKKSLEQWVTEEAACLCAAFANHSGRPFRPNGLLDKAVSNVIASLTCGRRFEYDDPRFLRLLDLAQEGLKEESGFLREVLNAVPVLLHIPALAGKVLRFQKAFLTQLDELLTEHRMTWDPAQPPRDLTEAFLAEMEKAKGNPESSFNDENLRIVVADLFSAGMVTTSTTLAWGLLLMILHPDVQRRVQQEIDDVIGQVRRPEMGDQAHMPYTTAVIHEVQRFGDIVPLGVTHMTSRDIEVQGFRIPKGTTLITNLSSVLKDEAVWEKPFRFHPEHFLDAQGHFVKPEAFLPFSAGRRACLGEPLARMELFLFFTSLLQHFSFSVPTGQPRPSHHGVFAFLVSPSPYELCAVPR

pIC50 | SMILES
< 4.52 | N#Cc1cccnc1N[C@@H]1CCN(C(=O)O[C@H]2C3CC4CC2C[C@](C(N)=O)(C4)C3)C1
4.60 | N#Cc1ccc(N[C@@H]2CCN(C(=O)O[C@H]3C4CC5CC3C[C@](C(N)=O)(C5)C4)C2)nc1
< 4.52 | N#Cc1cccnc1N[C@H]1CCN(C(=O)O[C@H]2C3CC4CC2C[C@](C(N)=O)(C4)C3)C1
4.78 | N#Cc1ccc(N[C@H]2CCN(C(=O)O[C@H]3C4CC5CC3C[C@](C(N)=O)(C5)C4)C2)nc1

tested on: not listed separately; assay: in vitro; conditions: rat, liver microsomes

half-life | SMILES
> 60 min | N#Cc1cccnc1N[C@@H]1CCN(C(=O)O[C@H]2C3CC4CC2C[C@](C(N)=O)(C4)C3)C1
46 min | N#Cc1ccc(N[C@@H]2CCN(C(=O)O[C@H]3C4CC5CC3C[C@](C(N)=O)(C5)C4)C2)nc1
25 min | N#Cc1cccnc1N[C@H]1CCN(C(=O)O[C@H]2C3CC4CC2C[C@](C(N)=O)(C4)C3)C1
25 min | N#Cc1ccc(N[C@H]2CCN(C(=O)O[C@H]3C4CC5CC3C[C@](C(N)=O)(C5)C4)C2)nc1

tested on: not listed separately; assay: in vitro; conditions: rat, hepatocytes
Description: Metabolic stability in rat hepatocytes assessed as hepatic clearance

CLhep predicted | SMILES
41 mL/min/kg | N#Cc1cccnc1N[C@@H]1CCN(C(=O)O[C@H]2C3CC4CC2C[C@](C(N)=O)(C4)C3)C1
33 mL/min/kg | N#Cc1ccc(N[C@@H]2CCN(C(=O)O[C@H]3C4CC5CC3C[C@](C(N)=O)(C5)C4)C2)nc1

target: 17-beta-hydroxysteroid dehydrogenase type 1 (Homo sapiens) (UniProt P14061); assay: Inhibition of 17betaHSD1; conditions: not given
Sequence (P14061 whole entry, looked up): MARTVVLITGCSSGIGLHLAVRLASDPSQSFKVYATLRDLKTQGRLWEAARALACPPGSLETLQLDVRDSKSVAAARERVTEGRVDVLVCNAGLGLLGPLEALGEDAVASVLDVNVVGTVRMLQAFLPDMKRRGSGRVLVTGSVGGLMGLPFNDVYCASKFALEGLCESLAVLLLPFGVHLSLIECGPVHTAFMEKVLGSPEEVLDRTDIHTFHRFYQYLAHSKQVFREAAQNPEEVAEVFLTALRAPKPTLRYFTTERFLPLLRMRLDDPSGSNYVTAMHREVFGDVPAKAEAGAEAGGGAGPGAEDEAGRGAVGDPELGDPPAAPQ

pIC50 | SMILES
< 5.00 | N#Cc1cccnc1N[C@@H]1CCN(C(=O)O[C@H]2C3CC4CC2C[C@](C(N)=O)(C4)C3)C1
< 5.00 | N#Cc1ccc(N[C@@H]2CCN(C(=O)O[C@H]3C4CC5CC3C[C@](C(N)=O)(C5)C4)C2)nc1

tested on: not listed separately; assay: AUC in rat at 1 umol/kg, iv and 5 umol/kg, po; conditions: plasma

AUC | SMILES
0.398 µM·h | N#Cc1cccnc1N[C@@H]1CCN(C(=O)O[C@H]2C3CC4CC2C[C@](C(N)=O)(C4)C3)C1
0.209 µM·h | N#Cc1ccc(N[C@@H]2CCN(C(=O)O[C@H]3C4CC5CC3C[C@](C(N)=O)(C5)C4)C2)nc1

tested on: not listed separately; assay: Clearance in rat at 1 umol/kg, iv and 5 umol/kg, po; conditions: in vivo

clearance | SMILES
42 mL/min/kg | N#Cc1cccnc1N[C@@H]1CCN(C(=O)O[C@H]2C3CC4CC2C[C@](C(N)=O)(C4)C3)C1
80 mL/min/kg | N#Cc1ccc(N[C@@H]2CCN(C(=O)O[C@H]3C4CC5CC3C[C@](C(N)=O)(C5)C4)C2)nc1

tested on: not listed separately; assay: Mean residence time in rat at 1 umol/kg, iv and 5 umol/kg, po; conditions: in vivo

MRT | SMILES
18 min | N#Cc1cccnc1N[C@@H]1CCN(C(=O)O[C@H]2C3CC4CC2C[C@](C(N)=O)(C4)C3)C1
30 min | N#Cc1ccc(N[C@@H]2CCN(C(=O)O[C@H]3C4CC5CC3C[C@](C(N)=O)(C5)C4)C2)nc1

tested on: not listed separately; assay: Oral bioavailability in rat at 1 umol/kg, iv and 5 umol/kg, po; conditions: in vivo

bioavailability | SMILES
42% | N#Cc1cccnc1N[C@@H]1CCN(C(=O)O[C@H]2C3CC4CC2C[C@](C(N)=O)(C4)C3)C1
27% | N#Cc1ccc(N[C@@H]2CCN(C(=O)O[C@H]3C4CC5CC3C[C@](C(N)=O)(C5)C4)C2)nc1

tested on: Rattus norvegicus; assay: Volume of distribution in rat at 1 umol/kg, iv and 5 umol/kg, po; conditions: in vivo

Vd | SMILES
0.7 L/kg | N#Cc1cccnc1N[C@@H]1CCN(C(=O)O[C@H]2C3CC4CC2C[C@](C(N)=O)(C4)C3)C1
2.2 L/kg | N#Cc1ccc(N[C@@H]2CCN(C(=O)O[C@H]3C4CC5CC3C[C@](C(N)=O)(C5)C4)C2)nc1
